# According to patent US20220372017A1, “HCK DEGRADERS AND USES THEREOF” (DANA-FARBER CANCER INSTITUTE, INC., priority 2019, published 2022):
# Assays:
# Format in all cases: cell-based
# LATS1 = biological target: T1, LATS1 (Homo sapiens, UniProt O95835); assay: Proteomics, degradation of target kinases in MOLT4 cells: LATS1; details: cell line MOLT4 (FIGS. 7A-7B)
# T1 construct: proteomics data on the degradation of target kinases in cell line MOLT4; endogenous in cells; host or cells: MOLT4
# T1 sequence (O95835 1-1130): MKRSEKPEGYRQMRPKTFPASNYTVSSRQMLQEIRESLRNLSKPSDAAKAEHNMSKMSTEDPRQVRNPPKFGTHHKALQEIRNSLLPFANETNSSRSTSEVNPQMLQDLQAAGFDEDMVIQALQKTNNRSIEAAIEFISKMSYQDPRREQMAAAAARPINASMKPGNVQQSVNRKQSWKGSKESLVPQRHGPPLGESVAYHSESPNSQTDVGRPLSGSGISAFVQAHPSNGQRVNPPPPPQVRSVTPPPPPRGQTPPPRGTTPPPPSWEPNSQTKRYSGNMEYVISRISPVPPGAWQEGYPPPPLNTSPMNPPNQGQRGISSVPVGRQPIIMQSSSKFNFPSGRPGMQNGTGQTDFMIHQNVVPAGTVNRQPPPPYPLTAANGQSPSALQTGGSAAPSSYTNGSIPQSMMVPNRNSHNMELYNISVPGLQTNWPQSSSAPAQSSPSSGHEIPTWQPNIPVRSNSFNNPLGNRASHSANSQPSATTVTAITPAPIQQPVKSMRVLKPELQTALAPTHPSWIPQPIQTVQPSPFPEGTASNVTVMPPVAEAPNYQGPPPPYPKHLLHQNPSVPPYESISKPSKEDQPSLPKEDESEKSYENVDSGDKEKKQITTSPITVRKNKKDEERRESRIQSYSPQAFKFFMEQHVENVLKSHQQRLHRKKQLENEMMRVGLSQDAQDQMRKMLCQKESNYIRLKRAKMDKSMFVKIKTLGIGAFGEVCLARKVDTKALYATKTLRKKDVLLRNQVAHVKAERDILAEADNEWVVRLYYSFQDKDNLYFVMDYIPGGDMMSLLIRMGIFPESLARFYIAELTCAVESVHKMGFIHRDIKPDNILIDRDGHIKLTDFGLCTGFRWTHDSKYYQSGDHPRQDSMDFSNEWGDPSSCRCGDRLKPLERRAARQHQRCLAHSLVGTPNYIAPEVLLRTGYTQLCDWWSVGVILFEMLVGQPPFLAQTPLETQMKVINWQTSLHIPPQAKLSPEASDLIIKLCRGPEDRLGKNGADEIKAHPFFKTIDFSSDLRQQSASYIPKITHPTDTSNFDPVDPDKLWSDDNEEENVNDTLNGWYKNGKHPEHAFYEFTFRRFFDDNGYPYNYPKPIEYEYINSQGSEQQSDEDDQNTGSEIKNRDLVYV
# From the text: (§1) FIGS. 7A-7B show proteomics data on the degradation of target kinases in cell line MOLT4 (human T lymphoblast; acute lymphoblastic leukemia) using treatment with exemplary compounds SB1-G-181 and SB1-G-200. FIG. 7A indicates in the bottom left corner the exemplary kinase targets (FYN, SRC, BLK, LCK, CSK, ABL1, ABL2, LIMK1, LATS1) in cell line MOLT4 which were degraded by exemplary compound SB1-G-181. FIG. 7B indicates in the bottom left corner the exemplary kinase targets (FYN, SRC, BLK, LCK, CSK, ABL1, ABL2, LIMK1, LATS1) in cell line MOLT4 which were degraded by exemplary compound SB1-G-200.
# BLK = biological target: T2, BLK (Homo sapiens, UniProt P51451); assay: Proteomics, degradation of target kinases in MOLT4 cells: BLK; details: cell line MOLT4 (FIGS. 7A-7B)
# T2 construct: proteomics data on the degradation of target kinases in cell line MOLT4; endogenous in cells; host or cells: MOLT4
# T2 sequence (P51451 whole entry): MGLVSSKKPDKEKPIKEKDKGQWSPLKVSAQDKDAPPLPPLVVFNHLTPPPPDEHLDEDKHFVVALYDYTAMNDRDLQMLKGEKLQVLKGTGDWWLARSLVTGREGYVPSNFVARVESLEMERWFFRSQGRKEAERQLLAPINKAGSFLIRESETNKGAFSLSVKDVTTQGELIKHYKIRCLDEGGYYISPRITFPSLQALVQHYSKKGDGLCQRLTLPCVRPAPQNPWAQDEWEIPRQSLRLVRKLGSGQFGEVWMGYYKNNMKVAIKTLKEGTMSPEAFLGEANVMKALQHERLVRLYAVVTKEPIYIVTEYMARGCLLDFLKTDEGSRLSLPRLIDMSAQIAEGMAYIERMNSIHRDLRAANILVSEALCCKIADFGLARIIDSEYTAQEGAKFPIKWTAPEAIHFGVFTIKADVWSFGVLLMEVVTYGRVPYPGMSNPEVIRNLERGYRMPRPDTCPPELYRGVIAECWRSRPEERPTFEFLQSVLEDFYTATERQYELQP
# From the text: as §1
# FYN = biological target: T3, FYN (Homo sapiens, UniProt P06241); assay: Proteomics, degradation of target kinases in MOLT4 cells: FYN; details: cell line MOLT4 (FIGS. 7A-7B)
# T3 construct: proteomics data on the degradation of target kinases in cell line MOLT4; endogenous in cells; host or cells: MOLT4
# T3 sequence (P06241 whole entry): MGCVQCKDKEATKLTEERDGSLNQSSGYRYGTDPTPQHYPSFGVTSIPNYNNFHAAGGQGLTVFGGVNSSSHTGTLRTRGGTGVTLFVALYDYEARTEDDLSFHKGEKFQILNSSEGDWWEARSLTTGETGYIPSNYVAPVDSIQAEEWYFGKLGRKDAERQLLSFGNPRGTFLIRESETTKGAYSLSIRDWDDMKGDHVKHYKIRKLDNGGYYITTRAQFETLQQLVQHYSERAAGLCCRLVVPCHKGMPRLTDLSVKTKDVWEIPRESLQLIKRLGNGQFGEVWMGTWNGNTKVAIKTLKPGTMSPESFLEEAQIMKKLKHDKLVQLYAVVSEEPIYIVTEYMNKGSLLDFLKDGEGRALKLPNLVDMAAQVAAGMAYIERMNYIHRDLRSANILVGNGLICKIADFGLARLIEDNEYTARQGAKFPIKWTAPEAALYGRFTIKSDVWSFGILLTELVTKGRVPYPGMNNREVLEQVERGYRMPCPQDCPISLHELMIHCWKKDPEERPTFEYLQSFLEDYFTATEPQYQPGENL
# From the text: as §1
# ABL1 = biological target: T4, ABL1 (Homo sapiens, UniProt P00519); assay: Proteomics, degradation of target kinases in MOLT4 cells: ABL1; details: cell line MOLT4 (FIGS. 7A-7B)
# T4 construct: proteomics data on the degradation of target kinases in cell line MOLT4; endogenous in cells; host or cells: MOLT4
# T4 sequence (P00519 whole entry): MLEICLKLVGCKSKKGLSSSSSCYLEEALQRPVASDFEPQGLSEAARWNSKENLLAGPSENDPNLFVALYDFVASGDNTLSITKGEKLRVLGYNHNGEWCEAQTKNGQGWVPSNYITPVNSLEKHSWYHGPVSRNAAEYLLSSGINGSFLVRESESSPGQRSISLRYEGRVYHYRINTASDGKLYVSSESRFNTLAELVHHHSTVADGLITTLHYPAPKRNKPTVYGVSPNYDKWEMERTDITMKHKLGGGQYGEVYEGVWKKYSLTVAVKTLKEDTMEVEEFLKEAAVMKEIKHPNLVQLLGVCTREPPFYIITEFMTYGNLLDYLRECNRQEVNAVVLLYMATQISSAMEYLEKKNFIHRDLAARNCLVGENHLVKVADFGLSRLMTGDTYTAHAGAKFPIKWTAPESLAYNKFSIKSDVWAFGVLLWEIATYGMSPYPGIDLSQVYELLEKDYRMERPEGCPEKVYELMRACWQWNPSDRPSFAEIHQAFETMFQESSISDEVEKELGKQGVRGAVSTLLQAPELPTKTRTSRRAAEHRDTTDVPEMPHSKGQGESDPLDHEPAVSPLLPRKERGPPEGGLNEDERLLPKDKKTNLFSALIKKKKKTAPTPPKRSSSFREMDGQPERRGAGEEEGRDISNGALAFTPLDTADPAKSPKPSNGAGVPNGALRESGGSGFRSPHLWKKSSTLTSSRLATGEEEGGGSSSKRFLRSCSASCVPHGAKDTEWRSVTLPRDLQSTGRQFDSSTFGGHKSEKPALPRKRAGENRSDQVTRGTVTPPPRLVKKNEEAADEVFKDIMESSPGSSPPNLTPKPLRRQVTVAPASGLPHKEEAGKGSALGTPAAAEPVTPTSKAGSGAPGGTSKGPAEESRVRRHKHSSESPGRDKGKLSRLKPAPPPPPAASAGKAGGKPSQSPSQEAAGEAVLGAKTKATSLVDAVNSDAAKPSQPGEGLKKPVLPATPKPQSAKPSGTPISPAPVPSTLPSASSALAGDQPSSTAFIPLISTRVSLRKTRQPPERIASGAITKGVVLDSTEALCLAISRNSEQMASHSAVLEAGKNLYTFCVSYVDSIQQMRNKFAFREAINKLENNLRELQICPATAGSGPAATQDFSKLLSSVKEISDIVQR
# From the text: as §1
# ABL2 = biological target: T5, ABL2 (Homo sapiens, UniProt P42684); assay: Proteomics, degradation of target kinases in MOLT4 cells: ABL2; details: cell line MOLT4 (FIGS. 7A-7B)
# T5 construct: proteomics data on the degradation of target kinases in cell line MOLT4; endogenous in cells; host or cells: MOLT4
# From the text: as §1
# LIMK1 = biological target: T6, LIMK1 (Homo sapiens, UniProt P53667); assay: Proteomics, degradation of target kinases in MOLT4 cells: LIMK1; details: cell line MOLT4 (FIGS. 7A-7B)
# T6 construct: proteomics data on the degradation of target kinases in cell line MOLT4; endogenous in cells; host or cells: MOLT4
# T6 sequence (P53667 whole entry): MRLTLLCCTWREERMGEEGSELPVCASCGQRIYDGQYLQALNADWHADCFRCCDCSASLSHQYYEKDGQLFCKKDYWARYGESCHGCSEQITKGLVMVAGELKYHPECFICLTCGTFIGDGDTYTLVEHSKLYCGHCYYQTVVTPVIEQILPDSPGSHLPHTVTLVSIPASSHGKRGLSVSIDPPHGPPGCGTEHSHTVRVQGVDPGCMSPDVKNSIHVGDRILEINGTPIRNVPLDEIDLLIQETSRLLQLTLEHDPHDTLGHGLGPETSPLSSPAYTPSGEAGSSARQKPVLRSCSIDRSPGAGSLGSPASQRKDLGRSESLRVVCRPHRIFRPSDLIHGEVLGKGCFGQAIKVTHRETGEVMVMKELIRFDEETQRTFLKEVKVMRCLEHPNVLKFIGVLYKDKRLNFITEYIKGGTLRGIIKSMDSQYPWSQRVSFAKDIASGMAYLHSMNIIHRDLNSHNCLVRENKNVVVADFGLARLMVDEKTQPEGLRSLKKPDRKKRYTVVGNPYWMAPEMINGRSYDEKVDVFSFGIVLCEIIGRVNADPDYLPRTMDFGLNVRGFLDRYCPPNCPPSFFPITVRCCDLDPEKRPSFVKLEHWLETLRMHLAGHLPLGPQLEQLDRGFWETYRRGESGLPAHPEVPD
# From the text: as §1
# CSK = biological target: T7, CSK (Homo sapiens, UniProt P41240); assay: Proteomics, degradation of target kinases in MOLT4 cells: CSK; details: cell line MOLT4 (FIGS. 7A-7B)
# T7 construct: proteomics data on the degradation of target kinases in cell line MOLT4; endogenous in cells; host or cells: MOLT4
# T7 sequence (P41240 whole entry): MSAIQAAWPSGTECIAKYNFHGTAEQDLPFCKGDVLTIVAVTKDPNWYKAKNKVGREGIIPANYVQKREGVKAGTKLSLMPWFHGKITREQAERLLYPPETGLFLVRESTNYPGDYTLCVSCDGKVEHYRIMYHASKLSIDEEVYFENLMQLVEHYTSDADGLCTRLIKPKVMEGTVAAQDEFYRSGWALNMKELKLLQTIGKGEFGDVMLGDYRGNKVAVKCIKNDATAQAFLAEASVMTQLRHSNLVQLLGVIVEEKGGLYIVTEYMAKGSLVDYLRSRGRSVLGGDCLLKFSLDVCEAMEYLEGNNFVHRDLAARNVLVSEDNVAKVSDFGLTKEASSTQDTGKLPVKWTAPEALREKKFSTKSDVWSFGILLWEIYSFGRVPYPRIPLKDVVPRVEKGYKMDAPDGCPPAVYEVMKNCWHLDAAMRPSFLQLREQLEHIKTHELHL
# From the text: as §1
# SRC = biological target: T8, SRC (Homo sapiens, UniProt P12931); assay: Proteomics, degradation of target kinases in MOLT4 cells: SRC; details: cell line MOLT4 (FIGS. 7A-7B)
# T8 construct: proteomics data on the degradation of target kinases in cell line MOLT4; endogenous in cells; host or cells: MOLT4
# T8 sequence (P12931 whole entry): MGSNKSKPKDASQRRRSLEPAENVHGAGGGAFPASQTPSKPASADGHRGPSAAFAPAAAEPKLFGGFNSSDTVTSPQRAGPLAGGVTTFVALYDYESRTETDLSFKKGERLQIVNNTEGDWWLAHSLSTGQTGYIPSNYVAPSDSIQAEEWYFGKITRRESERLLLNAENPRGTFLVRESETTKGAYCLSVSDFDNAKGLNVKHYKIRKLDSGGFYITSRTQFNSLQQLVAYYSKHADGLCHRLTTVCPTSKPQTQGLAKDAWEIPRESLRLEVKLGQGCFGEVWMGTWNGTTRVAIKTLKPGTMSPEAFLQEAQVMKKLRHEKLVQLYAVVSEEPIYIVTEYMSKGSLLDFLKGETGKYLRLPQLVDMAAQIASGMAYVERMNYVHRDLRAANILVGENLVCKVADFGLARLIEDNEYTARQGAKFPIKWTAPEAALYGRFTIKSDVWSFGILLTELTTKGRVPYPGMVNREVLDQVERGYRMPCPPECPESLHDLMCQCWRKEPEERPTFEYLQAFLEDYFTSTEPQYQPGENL
# From the text: as §1
# LCK = biological target: T9, LCK (Homo sapiens, UniProt P06239); assay: Proteomics, degradation of target kinases in MOLT4 cells: LCK; details: cell line MOLT4 (FIGS. 7A-7B)
# T9 construct: proteomics data on the degradation of target kinases in cell line MOLT4; endogenous in cells; host or cells: MOLT4
# T9 sequence (P06239 whole entry): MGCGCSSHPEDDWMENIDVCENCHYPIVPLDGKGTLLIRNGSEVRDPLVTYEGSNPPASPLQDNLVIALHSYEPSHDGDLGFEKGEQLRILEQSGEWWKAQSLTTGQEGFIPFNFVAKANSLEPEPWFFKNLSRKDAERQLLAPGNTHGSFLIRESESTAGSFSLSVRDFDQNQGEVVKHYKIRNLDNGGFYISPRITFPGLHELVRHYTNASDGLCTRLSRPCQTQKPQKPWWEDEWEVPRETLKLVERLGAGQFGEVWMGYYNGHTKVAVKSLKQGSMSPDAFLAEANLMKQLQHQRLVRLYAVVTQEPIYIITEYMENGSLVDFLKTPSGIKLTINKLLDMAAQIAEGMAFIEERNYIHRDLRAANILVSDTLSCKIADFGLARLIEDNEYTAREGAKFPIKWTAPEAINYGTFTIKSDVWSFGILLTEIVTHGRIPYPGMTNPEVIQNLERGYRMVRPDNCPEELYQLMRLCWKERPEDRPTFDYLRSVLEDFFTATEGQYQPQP
# From the text: as §1
# BTK [1] = biological target: T10, BTK (Homo sapiens, UniProt Q06187); assay: Western blot protein degradation assessment, BTK; details: MYD88 mutated BCWM.1 cells, 6 hours, Western blot (FIG. 4)
# T10 construct: following treatment of MYD88 mutated BCWM.1 cells; endogenous in cells
# T10 sequence (Q06187 2-659): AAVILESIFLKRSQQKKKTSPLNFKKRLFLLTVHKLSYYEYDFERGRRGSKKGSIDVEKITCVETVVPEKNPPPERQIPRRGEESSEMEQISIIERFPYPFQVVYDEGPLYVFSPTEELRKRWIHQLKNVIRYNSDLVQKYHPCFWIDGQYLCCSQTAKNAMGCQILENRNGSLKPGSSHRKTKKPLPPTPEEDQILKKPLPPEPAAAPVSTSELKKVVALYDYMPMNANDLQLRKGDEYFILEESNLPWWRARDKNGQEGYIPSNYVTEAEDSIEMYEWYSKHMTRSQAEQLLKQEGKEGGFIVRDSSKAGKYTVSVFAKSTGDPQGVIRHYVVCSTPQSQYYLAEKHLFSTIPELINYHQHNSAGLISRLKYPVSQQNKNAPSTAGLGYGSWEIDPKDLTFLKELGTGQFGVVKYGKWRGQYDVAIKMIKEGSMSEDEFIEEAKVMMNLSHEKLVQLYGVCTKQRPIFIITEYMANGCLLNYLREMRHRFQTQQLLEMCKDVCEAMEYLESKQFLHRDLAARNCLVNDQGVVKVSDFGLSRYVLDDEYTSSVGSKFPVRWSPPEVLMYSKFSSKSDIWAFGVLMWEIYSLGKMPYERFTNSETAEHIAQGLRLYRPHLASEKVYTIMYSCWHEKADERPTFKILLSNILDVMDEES
# Description: (§2) SK-6-1 was used as a degrader control compound.
# (§3) SK-6-1 was used as a degrader control compound. […] “ABC-DLBCL” is activated B-cell (ABC) lymphoma, diffuse large B-cell lymphoma (DLBCL).
# (§4) Western blots were performed for the detection of protein degradation following the cell treatments with HCK degraders using antibodies for HCK (Cell Signaling), BTK (Cell Signaling) or Phospho-BTK (Tyr223) (Abcam). GAPDH was used for determination of protein loading.
# HCK = biological target: T11, HCK (Homo sapiens, UniProt P08631); assay: Western blot protein degradation assessment, HCK
# T11 construct: following treatment of MYD88 mutated BCWM.1 cells; endogenous in cells; host or cells: BCWM.1 WM cells (parental and vector/BTK-WT/BTK-C481S transduced); TMD8 ABC-DLBCL cells (transduced)
# Description: as §2, §3, §4
# BTK [2] = biological target: T12, BTK (Homo sapiens, UniProt Q06187, C481S); assay: Western blot protein degradation assessment, BTK; details: BTK^C481S mutant transduced BCWM.1 WM cells, 6 hours (FIG. 5)
# T12 construct: following treatment of MYD88 mutated BCWM.1 cells; endogenous in cells
# T12 sequence (Q06187 2-659 C481S): as the sequence (Q06187 2-659) above, with C480S counted along it
# Description: as §2, §3, §4
# BTK [3] = assay: Western blot protein degradation assessment, BTK; details: vector only, BTK^WT or BTK^C481S transduced TMD8 ABC-DLBCL cells, 6 hours (FIG. 6)
# Description: as §2, §3, §4
# Phospho-BTK (Tyr223) = assay: Western blot, Phospho-BTK (Tyr223); details: vector only
# Description: as §2, §3, §4
# [4] = MYD88 mutated BCWM.1 cells, 6 hours, Western blot (FIG. 4)
Structure (SMILES),degradation of LATS1 (proteomics) (LATS1),degradation of BLK (proteomics) (BLK),degradation of FYN (proteomics) (FYN),degradation of ABL1 (proteomics) (ABL1),degradation of ABL2 (proteomics) (ABL2),degradation of LIMK1 (proteomics) (LIMK1),degradation of CSK (proteomics) (CSK),degradation of SRC (proteomics) (SRC),degradation of LCK (proteomics) (LCK),degradation of BTK (BTK [1]),degradation of HCK (HCK; [4]),degradation of BTK (BTK [2]),degradation of BTK (BTK [3]),"BTK phosphorylation at Tyr-223 (Phospho-BTK (Tyr223); BTK^WT or BTK^C481S transduced BCWM.1 WM cells, 6 hours (FIG. 5))","BTK phosphorylation at Tyr-223 (Phospho-BTK (Tyr223); BTK^WT or BTK^C481S transduced TMD8 ABC-DLBCL cells, 6 hours (FIG. 6))","degradation of HCK (HCK; vector only, BTK^WT or BTK^C481S transduced BCWM.1 WM cells, 6 hours (FIG. 5))","degradation of HCK (HCK; vector only, BTK^WT or BTK^C481S transduced TMD8 ABC-DLBCL cells, 6 hours (FIG. 6))"
"Nc1ncnc2c1c(-c1ccc(Oc3ccccc3)cc1)nn2[C@H]1CC[C@H](N2CCN(CCOCCNC(=O)CNc3cccc4c3C(=O)N(C3CCC(=O)NC3=O)C4=O)CC2)CC1 (stereo partly drawn) [SB1-G-181, N-(2-(2-(4-((1r,4r)-4-(4-amino-3-(4-phenoxyphenyl)-1H-pyrazolo[3,4-d]pyrimidin-1-yl)cyclohexyl)piperazin-1-yl)ethoxy)ethyl)-2-(2-(2,6-dioxopiperidin-3-yl)-1,3-dioxoisoindolin-4-ylamino)acetamide]",degraded,degraded,degraded,degraded,degraded,degraded,degraded,degraded,degraded,,,,,,,,
Nc1ncnc2c1c(-c1ccc(Oc3ccccc3)cc1)nn2C1CCC(N2CCN(CCOCCNC(=O)CNc3cccc4c3C(=O)N(C3CCC(=O)NC3=O)C4=O)CC2)CC1 (stereo not drawn) [SB1-G-181-P1],,,,,,,,,,effective degradation,effective degradation,,,,,,
Nc1ncnc2c1c(-c1ccc(Oc3ccccc3)cc1)nn2[C@H]1CC[C@H](N2CCN(CCOCCOCCOCCNC(=O)CNc3cccc4c3C(=O)N(C3CCC(=O)NC3=O)C4=O)CC2)CC1 (stereo partly drawn) [SB1-G-182-P1],,,,,,,,,,effective degradation,effective degradation,,,,,,
Nc1ncnc2c1c(-c1ccc(Oc3ccccc3)cc1)nn2[C@H]1CC[C@H](N2CCN(CCOCCOCCNC(=O)CNc3cccc4c3C(=O)N(C3CCC(=O)NC3=O)C4=O)CC2)CC1 (stereo partly drawn) [SB1-G-185-P1],,,,,,,,,,effective degradation,effective degradation,diminished,effective degradation,blocked,blocked,effective degradation,effective degradation
Nc1ncnc2c1c(-c1ccc(Oc3ccccc3)cc1)nn2[C@H]1CC[C@H](N2CCN(CCCCCCNC(=O)COc3cccc4c3C(=O)N(C3CCC(=O)NC3=O)C4=O)CC2)CC1 (stereo partly drawn) [SB1-G-200],degraded,degraded,degraded,degraded,degraded,degraded,degraded,degraded,degraded,,,,,,,,
